{"source": "paper PMC7023391", "about": "“Comparison of Various Cell Lines and Three-Dimensional Mucociliary Tissue Model Systems to Estimate Drug Permeability Using an In Vitro Transport Study to Predict Nasal Drug Absorption in Rats” (Pharmaceutics, 2020)", "key": {"[1]": {"tested_on": "Caco-2", "experiment": "in vitro", "method": "(§1) Cells of the human colon adenocarcinoma cell line, Caco-2, were grown in Dulbecco’s Modified Eagle Medium (DMEM) supplemented with 10% fetal bovine serum (FBS), 1% L-glutamine, 1% non-essential amino acid, and 0.5% antibiotic–antimycotic solution [20]. Caco-2 cells were harvested with trypsin-EDTA and seeded on polycarbonate filters (pore size: 0.3 μm, growth area: 0.9 cm^2, 12 wells/plate, Beckton Dickinson Bioscience, Bedford, MA, USA) at a density of 1.8 × 10^5 cells/well. The culture medium was changed every 2 days. The monolayer was used for in vitro transport studies, 17–20 days after seeding.\n(§2) In transport studies using Caco-2, Calu-3, MDCK, and MucilAir, a transport medium (TM; Hank’s balanced salts solution supplemented with 15 mM glucose and 10 mM HEPES good buffer, pH 7.4) was used. […] The permeability of mannitol across MucilAir was cited from the literature."}, "[2]": {"tested_on": "Calu-3", "experiment": "In vitro transepithelial transport study across Calu-3 monolayers", "method": "(§3) Cells of the human bronchial submucosal gland carcinoma cell line, Calu-3, were grown in DMEM nutrient mixture F-12 HAM supplemented with 10% FBS and 0.5% antibiotic–antimycotic solution [21]. Calu-3 cells were harvested with trypsin-EDTA and seeded on polycarbonate filters (pore size: 0.3 μm, growth area: 0.9 cm^2, 12 wells/plate, Beckton Dickinson Bioscience) at a density of 4.5 × 10^5 cells/well. The culture medium was changed every 2 days. The monolayer was used for in vitro transport studies, 9–10 days after seeding.\nas §2"}, "[3]": {"tested_on": "MDCK", "experiment": "in vitro", "settings": "pH 7.4", "method": "as §3, with “The epithelial Mardi–Darby canine kidney” for “Cells of the human bronchial submucosal gland carcinoma”, “line (MDCK) cells” for “line, Calu-3,”, “Modified α-Eagle Medium” for “DMEM nutrient mixture F-12 HAM”, “[13]. MDCK” for “[21]. Calu-3”, “1.8” for “4.5”, “6–7” for “9–10”\nas §2"}, "[4]": {"tested_on": "EpiAirway", "experiment": "In vitro transepithelial transport study across EpiAirway tissues", "method": "Upon arrival, the primary human tracheal/bronchial epithelial cell system, EpiAirway, and the primary human bronchial epithelial cell system, MucilAir, were transferred to the well filled with 0.9 mL assay medium for EpiAirway and 0.7 mL MucilAir culture medium, which are serum free and contain growth factors and phenol red and are supplemented by default with antibiotics (penicillin/streptomycin). Both tissues were subsequently placed in an incubator with 5% CO2 at 37 °C. Both tissues were cultured in an air–liquid interface condition. EpiAirway tissues were used for the transport study following the overnight equilibration in assay medium. The mucous surface of MucilAir tissues was washed with 0.2 mL culture medium 2 days before the experiment in order to adjust the mucous level of each well. The permeation experiment using EpiAirway and MucilAir was conducted according to the manufacturer’s instructions.\nIn the transport study using EpiAirway, all the procedures were based on the Drug Delivery Protocol established by MatTek Corporation (https://www.mattek.com/wp-content/uploads/EpiAirway-Drug-Delivery-Protocol.pdf), and carried out in Absorption Systems LP. Dulbecco’s Phosphate Buffered Saline (DPBS) without Ca^2+ and Mg^2+ (pH 7.4) was used as the assay buffer. […] Radioactivity was 2 µCi/mL for the dosed [^3H] inulin and 0.5 µCi/mL for the dosed [^14C] mannitol. […]"}, "[5]": {"tested_on": "MucilAir", "settings": "pH 7.4"}, "[6]": {"settings": "cited from earlier work"}, "[7]": {"experiment": "in vitro", "settings": "dog, pH 7.4", "method": "as §3, with “The epithelial Mardi–Darby canine kidney” for “Cells of the human bronchial submucosal gland carcinoma”, “line (MDCK) cells” for “line, Calu-3,”, “Modified α-Eagle Medium” for “DMEM nutrient mixture F-12 HAM”, “[13]. MDCK” for “[21]. Calu-3”, “1.8” for “4.5”, “6–7” for “9–10”\nas §2"}, "[8]": {"settings": "nasal application to rats, AUCn/AUCiv; mean ± S.E.; determined in this study by the same method as ref 11", "procedure": "Under anesthesia by intraperitoneal sodium pentobarbital (50 mg/kg, Nembutal, Abbott Laboratories, Abbott Park, IL, USA), the right femoral artery was cannulated with polyethylene tubing (SP-31, Natsume, Tokyo, Japan) for the collection of blood samples. […] Blood samples were collected from arterial tubing in heparinized tubes at predetermined time intervals for 120 min. The blood was centrifuged to obtain the plasma.\nUnder light isoflurane anesthesia, the right femoral artery was cannulated with polyethylene tubing. A drug dissolved in 5 µL of phosphate buffer saline (pH 7.4) was instilled at 1 cm depth from the nostril by microsyringe. Thereafter, animals were kept in a cage (KN-326-III, Natsume, Tokyo, Japan) throughout the experiment. It usually took 5 min after drug instillation for the rat to recover from the anesthesia. Blood samples were collected for 360 min after drug administration. During this period, the animal was allowed free access to water.\nFractional nasal absorption (Fn) was calculated as follows:Fn = AUCn/AUCiv(2) where AUCn and AUCiv are the area under the concentration–time profile following the nasal and intravenous administration of the drug. AUC was calculated according to the trapezoidal rule up to the last sampling point and extrapolation after the last sampling point."}, "[9]": {"experiment": "in vitro", "settings": "human, Caco-2, pH 7.4", "method": "as §1, §2"}, "[10]": {"experiment": "In vitro transepithelial transport study across MucilAir tissues", "settings": "human, pH 7.4"}, "[11]": {"tested_on": "MDCK", "set-up": "method as in PMID 23200901", "settings": "[14C] D-mannitol; cited from the previous report; cited from earlier work"}, "[12]": {"tested_on": "MucilAir", "set-up": "method as in PMID 24216300", "settings": "[3H] mannitol; cited from the previous report; cited from earlier work"}, "[13]": {"settings": "apical to basal, 10 µM, pH 7.4, 37 °C, up to 60 min, mean ± S.E. of 3–4 experiments, inulin as [14C] inulin, mannitol as [14C] D-mannitol"}}, "note": "Where two headings read alike, the source gives them in different places.", "data": [{"compound": "Nc1ccc(S(=O)(=O)O)cc1", "note": "[Sulfanilic acid, sulfanilic acid]", "values": [{"measurement": "Permeability (Papp) Caco-2", "setting": "[1]; Caco-2, pH 7.4", "result": "0.58 ± 0.14 ×10^−6cm/s"}, {"measurement": "Permeability (Papp) Calu-3", "setting": "[2]; pH 7.4", "result": "0.75 ± 0.05 ×10^−6cm/s"}, {"measurement": "Permeability (Papp) MDCK", "setting": "[3]", "result": "0.43 ± 0.04 ×10^−6cm/s"}, {"measurement": "Permeability (Papp) EpiAirway", "setting": "[4]; pH 7.4", "result": "2.78 ± 0.40 ×10^−6cm/s"}, {"measurement": "Permeability (Papp) MucilAir", "setting": "[5]", "result": "0.58 ± 0.15 ×10^−6cm/s"}, {"measurement": "Fractional Absorption (Fn)", "setting": "[6]; rat, in vivo", "result": "82.7 ± 9.0", "unit": "%"}]}, {"compound": "Cc1cc(=O)n(-c2ccccc2)n1C", "note": "[Antipyrine, antipyrine]", "values": [{"measurement": "Papp at 60 min, 10 µM", "setting": "[7]; MDCK", "result": "32.5 ± 3.71", "unit": "×10⁻⁶ cm/s"}, {"measurement": "Fractional Absorption (Fn)", "setting": "[8]", "result": "96.3 ± 4.2", "unit": "%"}]}, {"compound": "Nc1nc2c(ncn2COCCO)c(=O)[nH]1", "note": "[Acyclovir, acyclovir]", "values": [{"measurement": "Papp at 60 min, 10 µM", "setting": "[9]", "result": "1.29 ± 0.28", "unit": "×10⁻⁶ cm/s"}, {"measurement": "Papp at 60 min, 10 µM", "setting": "[7]", "result": "0.61 ± 0.23", "unit": "×10⁻⁶ cm/s"}, {"measurement": "Papp at 60 min, 10 µM", "setting": "[10]", "result": "0.48 ± 0.05", "unit": "×10⁻⁶ cm/s"}]}, {"compound": "CN(Cc1cnc2nc(N)nc(N)c2n1)c1ccc(C(=O)N[C@@H](CCC(=O)O)C(=O)O)cc1", "note": "[Methotrexate, methotrexate]", "values": [{"measurement": "Papp at 60 min, 10 µM", "setting": "[9]", "result": "0.29 ± 0.02", "unit": "×10⁻⁶ cm/s"}, {"measurement": "Papp at 60 min, 10 µM", "setting": "[7]", "result": "0.09 ± 0.03", "unit": "×10⁻⁶ cm/s"}, {"measurement": "Papp at 60 min, 10 µM", "setting": "[10]", "result": "0.31 ± 0.06", "unit": "×10⁻⁶ cm/s"}]}, {"compound": "inulin", "values": [{"measurement": "Permeability (Papp) Caco-2", "setting": "[1]; [13]", "result": "0.34 ± 0.20 *^1 ×10^−6cm/s"}, {"measurement": "Permeability (Papp) Calu-3", "setting": "[2]; [13]", "result": "0.30 ± 0.09 *^1 ×10^−6cm/s"}, {"measurement": "Permeability (Papp) EpiAirway", "setting": "[4]; apical to basal, 10 µM, DPBS pH 7.4, 37 °C, up to 60 min, mean ± S.E. of 3–4 experiments, inulin as [3H] inulin, mannitol as [14C] D-mannitol", "result": "2.83 ± 0.20 *^2 ×10^−6cm/s"}, {"measurement": "Fractional Absorption (Fn)", "setting": "[6]; nasal application to rats, AUCn/AUCiv, mean ± S.E., inulin as [14C] inulin, mannitol as [14C] D-mannitol", "result": "12.4 ± 2.0 *^1%"}]}, {"compound": "OC[C@@H](O)[C@@H](O)[C@H](O)[C@H](O)CO", "note": "[Mannitol, mannitol]", "values": [{"measurement": "Papp at 60 min, 10 µM", "setting": "[9]", "result": "0.92 ± 0.15", "unit": "×10⁻⁶ cm/s"}, {"measurement": "Permeability (Papp) MDCK", "setting": "[11]", "result": "0.18 ± 0.05 *^3,b ×10^−6cm/s"}, {"measurement": "Permeability (Papp) MucilAir", "setting": "[12]", "result": "0.2 ± 0.0 *^4,c ×10^−6cm/s"}, {"measurement": "Fractional Absorption (Fn)", "setting": "[6]; rat, in vivo", "result": "52.9 ± 3.4 *^3%"}]}, {"compound": "C=C[C@H]1C[N@@]2CC[C@H]1C[C@@H]2[C@@H](O)c1ccnc2ccc(OC)cc12", "note": "[Quinidine, quinidine]", "values": [{"measurement": "Papp at 60 min, 10 µM", "setting": "[7]", "result": "11.6 ± 1.31", "unit": "×10⁻⁶ cm/s"}, {"measurement": "Papp at 60 min, 10 µM", "setting": "[10]", "result": "18.6 ± 1.93", "unit": "×10⁻⁶ cm/s"}]}]}
